Key:
[1] = Antioxidant activity assessed as trolox equivalent of ORAC radical scavenging activity by ORAC-FL assay; format: functional
[2] = target: T1, Cholinesterase (Homo sapiens, UniProt P06276); assay: Inhibition of human BuchE preincubated for 30 mins followed by substrate addition using butyrylthiocholine iodide as substrate by Ellman's method
[3] = Antioxidant activity of compound assessed as trolox equivalent of AAPH radical scavenging activity preincubated for 15 mins followed by AAPH addition and measured for 120 mins by ORAC-FL assay; format: functional; settings: time 135.0 min
[4] = Antioxidant activity assessed as DPPH radical scavenging activity measured for 45 mins by spectrophotometric analysis; format: functional
[5] = Antioxidant activity assessed as ABTS radical cation scavenging activity measured every minute for 15 mins by spectrophotometeric analysis; format: functional
[6] = Antioxidant activity assessed as GO radical cation scavenging activity measured for 30 mins by spectrophotometeric analysis; format: functional
[7] = tested on: HepG2; assay: Cytotoxicity against human HepG2 cells assessed reduction in cell viability at 1000 uM by MTT assay; format: toxicity, cell-based; settings: hepg2, 1000 µM
[8] = target: T2, Acetylcholinesterase (Homo sapiens, UniProt P22303); assay: Inhibition of human AchE preincubated for 20 mins followed by substrate addition using acetylthiocholine iodide as substrate by Ellman's method
T2 sequence (P22303 whole entry): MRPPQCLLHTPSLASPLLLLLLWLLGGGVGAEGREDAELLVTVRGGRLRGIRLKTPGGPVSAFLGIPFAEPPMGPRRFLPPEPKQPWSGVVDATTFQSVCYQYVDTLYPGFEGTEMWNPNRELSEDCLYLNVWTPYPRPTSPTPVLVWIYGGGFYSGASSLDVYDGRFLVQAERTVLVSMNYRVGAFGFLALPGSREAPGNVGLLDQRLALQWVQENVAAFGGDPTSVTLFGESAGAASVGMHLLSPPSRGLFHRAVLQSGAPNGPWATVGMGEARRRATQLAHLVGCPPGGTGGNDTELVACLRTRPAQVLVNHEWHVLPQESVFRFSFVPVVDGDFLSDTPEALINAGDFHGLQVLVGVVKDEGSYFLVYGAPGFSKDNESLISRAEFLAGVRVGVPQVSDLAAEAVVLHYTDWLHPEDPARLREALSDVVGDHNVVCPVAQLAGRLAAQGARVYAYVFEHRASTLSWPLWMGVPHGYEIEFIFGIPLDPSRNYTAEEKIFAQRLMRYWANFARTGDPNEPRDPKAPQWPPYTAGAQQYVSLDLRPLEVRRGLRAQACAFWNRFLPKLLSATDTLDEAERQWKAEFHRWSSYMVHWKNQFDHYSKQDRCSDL

[9] = Antioxidant activity of compound assessed as trolox equivalent of AAPH radical scavenging activity preincubated for 15 mins followed by AAPH addition and measured for 60 mins by ORAC-FL assay; format: functional; settings: time 75.0 min
[10] = tested on: HepG2; assay: Cytotoxicity against human HepG2 cells assessed reduction in cell viability at 1 uM by MTT assay; format: toxicity, cell-based; settings: hepg2, 1 µM
[11] = tested on: SH-SY5Y; assay: Neuroprotective activity against amyloid beta (1 to 42)-induced cytotoxicity in human SH-SY5Y cells assessed as increase in cell viability at 10 uM incubated for 24 hrs by MTT assay; format: functional
[12] = target: Amyloid-beta precursor protein (Homo sapiens) (UniProt P05067); assay: Inhibition of amyloid beta (1 to 42) (unknown origin) self aggregation assessed as reduction in fluorescence intensity at 50 uM incubated for 24 hrs by ThT-based fluorimetric assay
Sequence of Amyloid-beta precursor protein (Homo sapiens) (P05067 whole entry): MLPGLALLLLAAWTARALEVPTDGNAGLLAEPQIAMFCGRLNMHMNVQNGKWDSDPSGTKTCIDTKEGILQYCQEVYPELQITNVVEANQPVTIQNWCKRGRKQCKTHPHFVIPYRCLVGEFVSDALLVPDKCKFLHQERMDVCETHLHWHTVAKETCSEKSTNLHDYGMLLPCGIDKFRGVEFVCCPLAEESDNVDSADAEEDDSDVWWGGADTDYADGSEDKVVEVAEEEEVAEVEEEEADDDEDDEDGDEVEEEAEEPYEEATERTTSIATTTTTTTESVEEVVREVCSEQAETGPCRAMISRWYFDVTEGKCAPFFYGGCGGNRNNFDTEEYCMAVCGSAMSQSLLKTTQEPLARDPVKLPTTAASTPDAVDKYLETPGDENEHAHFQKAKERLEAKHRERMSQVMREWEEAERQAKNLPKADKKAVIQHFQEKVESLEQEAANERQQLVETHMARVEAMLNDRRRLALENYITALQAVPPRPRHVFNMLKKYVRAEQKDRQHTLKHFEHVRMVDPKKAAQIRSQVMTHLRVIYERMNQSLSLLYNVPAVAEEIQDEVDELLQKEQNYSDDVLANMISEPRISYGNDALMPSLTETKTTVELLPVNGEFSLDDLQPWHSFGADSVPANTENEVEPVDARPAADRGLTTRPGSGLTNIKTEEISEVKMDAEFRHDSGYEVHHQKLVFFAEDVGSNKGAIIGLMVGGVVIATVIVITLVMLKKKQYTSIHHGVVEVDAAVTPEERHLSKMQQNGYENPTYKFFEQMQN

[13] = Antioxidant activity assessed as DPPH radical scavenging activity at 200 uM incubated for 2 hrs in dark by spectrophotometric analysis; format: functional
[14] = Antioxidant activity of compound assessed as trolox equivalent of AAPH radical scavenging activity preincubated for 15 mins followed by AAPH addition and measured every 1 min for 60 mins by ORAC-FL assay; format: functional; settings: time 75.0 min
[15] = target: Amyloid-beta precursor protein (Homo sapiens) (UniProt P05067); assay: Inhibition of self-induced amyloid beta (1 to 40) (unknown origin) aggregation at 20 uM incubated for 48 hrs by ThT-based fluorimetric assay
[16] = Antioxidant activity assessed as DPPH radical scavenging activity measured for 30 mins in dark by UV-Vis spectrophotometric analysis; format: functional
[17] = tested on: HT-22; assay: Neuroprotection against iodoacetic acid-induced ATP depletion in mouse HT-22 cells assessed as increase in cell viability at 1 uM incubated for 2 hrs in medium with compound and iodoacetic acid followed by medium change with compound and measured after 24 hrs by MTT assay; format: functional; settings: time 26 hrs
[18] = Metal chelating activity assessed as Fe2+ -ferrozoine complex formation incubated for 10 mins followed by ferrozine addition and further incubated for 10 mins by spectrophotometric assay; settings: time 20.0 min
[19] = Antioxidant activity assessed as DPPH radical scavenging activity incubated for 30 mins by UV-Vis spectrophotometric analysis; format: functional
[20] = target: T3, Acetylcholinesterase (Electrophorus electricus, UniProt O42275); assay: Inhibition of electric eel AChE preincubated for 5 mins followed by substrate addition using acetylthiocholine iodide as substrate by Ellman's method
T3 sequence (O42275 whole entry): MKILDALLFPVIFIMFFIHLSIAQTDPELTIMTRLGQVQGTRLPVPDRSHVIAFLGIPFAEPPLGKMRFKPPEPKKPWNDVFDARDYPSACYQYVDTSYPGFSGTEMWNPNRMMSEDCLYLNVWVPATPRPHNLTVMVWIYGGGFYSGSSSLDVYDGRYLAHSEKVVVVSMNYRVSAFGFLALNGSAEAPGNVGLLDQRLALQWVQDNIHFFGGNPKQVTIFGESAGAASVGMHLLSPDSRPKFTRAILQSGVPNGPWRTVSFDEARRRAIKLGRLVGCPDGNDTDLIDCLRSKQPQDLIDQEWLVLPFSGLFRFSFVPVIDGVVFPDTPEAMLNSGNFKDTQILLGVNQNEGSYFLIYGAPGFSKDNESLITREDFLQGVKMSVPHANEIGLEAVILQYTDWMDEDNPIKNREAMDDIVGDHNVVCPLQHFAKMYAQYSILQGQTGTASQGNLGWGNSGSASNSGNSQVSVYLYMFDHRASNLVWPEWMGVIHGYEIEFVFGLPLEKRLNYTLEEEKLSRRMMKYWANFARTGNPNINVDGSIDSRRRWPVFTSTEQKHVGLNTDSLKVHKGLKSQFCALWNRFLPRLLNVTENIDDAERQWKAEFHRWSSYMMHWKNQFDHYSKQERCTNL

[21] = Antioxidant activity assessed as trolox equivalent of ABTS radical cation scavenging activity measured after 6 mins by UV spectrophotometeric analysis; format: functional
[22] = target: T4, Cholinesterase (Equus caballus, UniProt P81908); assay: Inhibition of equine serum BuChE preincubated for 5 mins followed by substrate addition and measured after 5 mins using S-butyrylthiocholine iodide as substrate by Ellman's method
T4 sequence (P81908 whole entry): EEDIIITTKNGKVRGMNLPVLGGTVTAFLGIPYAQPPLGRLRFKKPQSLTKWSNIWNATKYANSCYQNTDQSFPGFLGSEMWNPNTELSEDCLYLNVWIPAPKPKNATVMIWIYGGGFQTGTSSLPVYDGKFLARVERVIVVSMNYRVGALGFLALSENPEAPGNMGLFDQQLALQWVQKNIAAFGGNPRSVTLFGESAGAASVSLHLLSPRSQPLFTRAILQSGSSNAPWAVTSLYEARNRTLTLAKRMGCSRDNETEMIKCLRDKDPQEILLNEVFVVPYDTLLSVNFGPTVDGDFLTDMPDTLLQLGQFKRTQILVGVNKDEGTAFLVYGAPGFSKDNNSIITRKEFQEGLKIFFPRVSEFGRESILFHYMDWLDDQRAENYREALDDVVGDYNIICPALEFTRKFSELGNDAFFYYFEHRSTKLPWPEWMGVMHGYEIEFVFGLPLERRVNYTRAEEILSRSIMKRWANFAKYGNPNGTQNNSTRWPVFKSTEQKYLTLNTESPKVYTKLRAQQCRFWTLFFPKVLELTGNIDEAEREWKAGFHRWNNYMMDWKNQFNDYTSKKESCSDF

[23] = target: T4, Cholinesterase; assay: Inhibition of equine BuChE by Ellman's method
[24] = target: T2, Acetylcholinesterase; assay: Inhibition of human AchE using acetylthiocholine iodide as substrate by Ellman colorimetric assay
[25] = target: T1, Cholinesterase; assay: Inhibition of human BuchE using butyrylthiocholine iodide as substrate by Ellman colorimetric assay
[26] = tested on: SH-SY5Y; assay: Neuroprotective activity against amyloid beta-induced cytotoxicity in human SH-SY5Y cells assessed as cell viability at 10 to 80 uM by MTT assay; format: functional; settings: dose 10-80 µM
[27] = target: Beta-secretase 1 (Homo sapiens, UniProt P56817); assay: Inhibition of human BACE-1 by FRET-based fluorometric assay
Sequence of Beta-secretase 1 (P56817 whole entry): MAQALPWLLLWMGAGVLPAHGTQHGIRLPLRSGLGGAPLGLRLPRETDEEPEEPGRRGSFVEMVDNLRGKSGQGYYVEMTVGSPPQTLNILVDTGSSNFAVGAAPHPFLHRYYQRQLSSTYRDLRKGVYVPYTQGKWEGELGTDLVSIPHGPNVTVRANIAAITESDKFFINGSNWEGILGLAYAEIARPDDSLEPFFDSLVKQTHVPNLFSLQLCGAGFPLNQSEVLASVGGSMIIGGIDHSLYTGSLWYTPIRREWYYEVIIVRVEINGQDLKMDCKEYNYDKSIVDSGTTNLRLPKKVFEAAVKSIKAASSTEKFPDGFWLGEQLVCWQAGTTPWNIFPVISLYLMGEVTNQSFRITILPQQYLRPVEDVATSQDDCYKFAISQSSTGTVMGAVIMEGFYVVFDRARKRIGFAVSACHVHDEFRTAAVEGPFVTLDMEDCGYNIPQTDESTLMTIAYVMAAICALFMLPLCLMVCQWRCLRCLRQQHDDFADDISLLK

[28] = target: T3, Acetylcholinesterase; assay: Inhibition of electric eel AChE preincubated for 15 mins followed by substrate addition using acetylthiocholine iodide as substrate by Ellman's method
[29] = Antioxidant activity assessed as DPPH radical scavenging activity at 1 mM incubated for 30 mins by microplate reader method; format: functional
[30] = target: Amyloid-beta precursor protein (Homo sapiens) (UniProt P05067); assay: Inhibition of amyloid beta (1 to 42) (unknown origin) self aggregation assessed as reduction in fluorescence intensity at 80 uM incubated for 24 hrs by ThT-based fluorimetric assay
[31] = target: Acetylcholinesterase (Electrophorus electricus) (UniProt O42275); assay: Inhibition of electric eel AChE at 1 uM by Ellman's method
Sequence of Acetylcholinesterase (Electrophorus electricus) (O42275 24-633 limits assumed): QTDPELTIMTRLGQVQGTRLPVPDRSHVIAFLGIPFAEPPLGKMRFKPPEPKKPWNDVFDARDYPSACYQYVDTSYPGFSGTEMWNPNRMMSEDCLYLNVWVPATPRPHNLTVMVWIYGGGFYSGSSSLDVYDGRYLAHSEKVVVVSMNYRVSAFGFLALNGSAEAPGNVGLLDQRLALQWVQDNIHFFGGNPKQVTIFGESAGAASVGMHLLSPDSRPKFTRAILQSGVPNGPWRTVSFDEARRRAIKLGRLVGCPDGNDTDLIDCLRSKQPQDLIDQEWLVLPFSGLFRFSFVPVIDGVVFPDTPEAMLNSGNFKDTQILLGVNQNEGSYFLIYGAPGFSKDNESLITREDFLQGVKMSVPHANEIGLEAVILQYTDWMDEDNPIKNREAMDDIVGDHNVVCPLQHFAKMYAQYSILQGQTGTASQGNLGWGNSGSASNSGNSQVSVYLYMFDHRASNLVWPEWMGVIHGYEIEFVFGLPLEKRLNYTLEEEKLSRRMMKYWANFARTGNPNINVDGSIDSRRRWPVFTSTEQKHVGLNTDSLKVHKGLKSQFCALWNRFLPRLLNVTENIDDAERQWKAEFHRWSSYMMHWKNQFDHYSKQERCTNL

[32] = target: Cholinesterase (Equus caballus) (UniProt P81908); assay: Inhibition of equine BuChE at 1 uM by Ellman's method
Sequence of Cholinesterase (Equus caballus) (P81908 whole entry): as the sequence (P81908 whole entry) above

[33] = target: Amyloid-beta precursor protein (Homo sapiens) (UniProt P05067); assay: Inhibition of amyloid beta (1 to 42) (unknown origin) self aggregation assessed as reduction in fluorescence intensity at 20 uM incubated for 24 hrs by ThT-based fluorimetric assay
[34] = target: T2, Acetylcholinesterase; assay: Inhibition of human AchE preincubated for 6 mins followed by substrate addition and measured upto 3 mins using acetylthiocholine iodide as substrate by Ellman's method
[35] = target: T1, Cholinesterase; assay: Inhibition of human BuchE preincubated for 6 mins followed by substrate addition and measured upto 3 mins using acetylthiocholine iodide as substrate by Ellman's method
[36] = target: T4, Cholinesterase; assay: Inhibition of equine serum BuchE preincubated for 6 mins followed by substrate addition using butyrylthiocholine iodide as substrate by DTNB reagent based Ellman method
[37] = target: Amyloid-beta precursor protein (Homo sapiens) (UniProt P05067); assay: Inhibition of self-induced amyloid beta (1 to 42) (unknown origin) aggregation at 20 uM incubated for 46 to 48 hrs in dark by ThT-based fluorimetric assay; settings: time 46-48 hrs
[38] = target: T1, Cholinesterase
Description: Inhibition of human BuchE preincubated for 6 mins followed by substrate addition using butyrylthiocholine iodide as substrate by DTNB reagent based Ellman method

T1 sequence (P06276 whole entry): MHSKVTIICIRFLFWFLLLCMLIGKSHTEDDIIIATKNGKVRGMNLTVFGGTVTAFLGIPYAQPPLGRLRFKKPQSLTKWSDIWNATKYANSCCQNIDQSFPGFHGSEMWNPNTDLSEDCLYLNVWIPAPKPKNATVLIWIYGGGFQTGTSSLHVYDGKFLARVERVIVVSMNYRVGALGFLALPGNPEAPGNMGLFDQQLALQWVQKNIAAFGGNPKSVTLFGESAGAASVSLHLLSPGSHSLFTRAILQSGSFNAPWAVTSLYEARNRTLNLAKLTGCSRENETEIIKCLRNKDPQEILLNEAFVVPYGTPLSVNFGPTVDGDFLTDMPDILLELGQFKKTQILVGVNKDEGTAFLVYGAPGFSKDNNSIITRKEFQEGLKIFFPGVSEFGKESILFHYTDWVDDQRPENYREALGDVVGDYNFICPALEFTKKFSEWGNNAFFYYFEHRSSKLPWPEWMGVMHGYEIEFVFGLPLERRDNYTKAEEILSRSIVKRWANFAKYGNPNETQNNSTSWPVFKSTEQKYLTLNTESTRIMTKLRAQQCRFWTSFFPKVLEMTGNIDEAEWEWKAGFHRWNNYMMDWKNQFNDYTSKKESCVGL

CCNC(=O)O[C@@H]1C[C@H]2O[C@@H](OC(=O)CCCCC3CCSS3)C[C@H]2O1 (some centres undefined)
Activity [1]: 0.163 equiv

CCCCNC(=O)O[C@@H]1C[C@H]2O[C@@H](OC(=O)CCCCC3CCSS3)C[C@H]2O1 (some centres undefined)
IC50 [2]: 170 nM

O=C(CCCCC1CCSS1)O[C@H]1C[C@H]2O[C@H](OC(=O)NCc3ccccc3)C[C@H]2O1 (some centres undefined)
IC50 [2]: 150 nM

COc1cc(/C=C/C(=O)O)ccc1S
Activity [3]: 0.34 | IC50 [4]: 47800 nM | IC50 [5]: 19900 nM | IC50 [6]: 4250 nM

COc1ccc2nc3c(c(NCCCCCCCCN(CC(=O)Nc4ccc5ccccc5c4)C(=O)/C=C/c4ccc(O)c(OC)c4)c2c1)CCCC3
Activity [7]: 59.4% | IC50 [8]: 22.2 nM | Activity [9]: 4.29 equiv | Activity [10]: 98.8% | Activity [11]: 95.1% | inhibition [12]: 65.6%

O=C(NCc1ccccc1)C(c1cnc2ccccc2c1)N(Cc1ccccc1)C(=O)/C=C/c1ccc(O)c(O)c1 (centres undefined)
Activity [13]: 89.1% | Activity [14]: 5.48 equiv | inhibition [15]: 66.4%

O=C(/C=C/c1ccc(O)c(O)c1)Nc1cccc2ccccc12
IC50 [16]: 20800 nM

O=C(/C=C/c1ccccc1)Oc1ccc2c(c1)O[C@H](c1ccc(O)c(O)c1)[C@@H](O)C2=O
Activity [17]: 40%

COc1cc(/C=C/C(=O)O)ccc1O [FERULATE]
Activity [18]: 8.9% | Activity [3]: 0.34 | IC50 [4]: 64600 nM | IC50 [5]: 16800 nM | IC50 [6]: 37500 nM

COc1cc(/C=C/C(=O)NCCC2CCN(Cc3ccccc3)CC2)cc(OC)c1O
IC50 [19]: 24900 nM | IC50 [20]: 390 nM | Activity [21]: 1.78 equiv

COCCCCCCCCCCCCCCCCCCOC(=O)/C=C/c1ccc(O)c(OC)c1
Activity [18]: 77.9%

COc1ccc(/C=C/C(=O)NCCC2CCN(Cc3ccccc3)CC2)cc1O
IC50 [19]: 764000 nM

O=C(/C=C/c1cc(O)c(O)c(O)c1)NCCCCCC[P+](c1ccccc1)(c1ccccc1)c1ccccc1
IC50 [22]: 110 nM

COc1cc(/C=C/C(=O)O[C@H]2C[C@H]3O[C@H](OC(=O)NCc4ccccc4)C[C@H]3O2)ccc1O
Activity [1]: 0.635 equiv

COc1ccc2[nH]cc(CCNC(=O)CN(CCC3CCN(Cc4ccccc4)CC3)C(=O)/C=C/c3ccc(O)c(OC)c3)c2c1
IC50 [23]: 10.4 nM | Activity [1]: 8.71 equiv

O=C(NCc1ccccc1)C(c1ccnc2ccccc12)N(Cc1ccccc1)C(=O)/C=C/c1ccc(O)c(O)c1 (centres undefined)
Activity [13]: > 77% | Activity [14]: 4.98 equiv

O=C1c2c(O)cc(O)cc2O[C@H](c2ccc(O)c(O)c2)[C@H]1O [(+)-TAXIFOLIN]
Activity [17]: 10%

COc1cc(/C=C/c2nnc(-c3ccc(C(F)(F)F)cc3)o2)ccc1O
IC50 [24]: 68 nM | IC50 [25]: 255 nM | Activity [26]: 70.45% | IC50 [27]: 255 nM

COc1ccc(/C=C/C(O)NCCCNc2c3c(nc4ccccc24)CCCC3)cc1OC (centres undefined)
IC50 [28]: 90 nM | Activity [29]: 16.8% | inhibition [30]: 56.5%

COc1cc(/C=C/C(=O)N(CCC2CCN(Cc3ccccc3)CC2)CC(=O)Nc2c(C)cccc2Cl)ccc1O
inhibition [31]: 24.8% | inhibition [32]: 57.3% | Activity [1]: 6.9 equiv

COC(=O)/C=C/c1ccc(OCCCCCN2CCN(CC(=O)Nc3c4c(nc5ccccc35)CCCC4)CC2)c(OC)c1
inhibition [33]: 37.2%

C=CCc1ccc(OC(=O)/C=C/c2ccc(O)c(O)c2)c(OC)c1
IC50 [16]: 11200 nM

O=C(/C=C/c1ccc(O)c(O)c1)NCCCCCC[P+](c1ccccc1)(c1ccccc1)c1ccccc1
IC50 [22]: 150 nM

CCCCNC(=O)O[C@@H]1C[C@H]2O[C@@H](OC(=O)/C=C/c3ccc(O)c(OC)c3)C[C@H]2O1
IC50 [2]: 430 nM

COc1cc(/C=C/c2nnc(-c3ccc(OC(F)(F)F)cc3)o2)ccc1O
IC50 [24]: 92 nM | IC50 [25]: 210 nM | Activity [26]: 65.11% | IC50 [27]: 210 nM

COc1cc(/C=C/C(=O)OCCCCCN(C)Cc2cccc(OC(=O)N(C)C)c2)ccc1O
Activity [21]: 1.26 µM | IC50 [34]: 19.7 nM | IC50 [35]: 0.59 nM

COc1ccc(/C=C/C(=O)Nc2cc[n+](Cc3cccc(F)c3)cc2)cc1OC
IC50 [36]: 3.1 nM | inhibition [37]: 63.4% | IC50 [38]: 4.8 nM

COc1cc(/C=C/C(=O)NCCC2CCN(Cc3ccccc3)CC2)ccc1O
IC50 [19]: 34100 nM | Activity [21]: 1.39 equiv

O=C(/C=C/CCc1ccc2c(c1)OCO2)NCCCNc1c2c(nc3ccccc13)CCCC2
IC50 [28]: 130 nM | Activity [29]: 20.8% | inhibition [30]: 72.2%

Reference: ChEMBL document CHEMBL5096162, “A review on ferulic acid and analogs based scaffolds for the management of Alzheimer's disease” (Eur J Med Chem, 2021)
